The source of these data is patent publication US8637549B2, “Pyridons as PDK1 inhibitors” (Boehringer Ingelheim International GmbH, priority 2008, dated 2014).

In the assay the target is T1, His6-PDK1 (aa 52-556) (Homo sapiens, UniProt O15530).
T1 construct: 15 μL His6-PDK1 (aa 52-556) 3.33 ng/well) and PDKtide; host or cells: baculovirus-infected insect cells
T1 sequence (O15530 52-556): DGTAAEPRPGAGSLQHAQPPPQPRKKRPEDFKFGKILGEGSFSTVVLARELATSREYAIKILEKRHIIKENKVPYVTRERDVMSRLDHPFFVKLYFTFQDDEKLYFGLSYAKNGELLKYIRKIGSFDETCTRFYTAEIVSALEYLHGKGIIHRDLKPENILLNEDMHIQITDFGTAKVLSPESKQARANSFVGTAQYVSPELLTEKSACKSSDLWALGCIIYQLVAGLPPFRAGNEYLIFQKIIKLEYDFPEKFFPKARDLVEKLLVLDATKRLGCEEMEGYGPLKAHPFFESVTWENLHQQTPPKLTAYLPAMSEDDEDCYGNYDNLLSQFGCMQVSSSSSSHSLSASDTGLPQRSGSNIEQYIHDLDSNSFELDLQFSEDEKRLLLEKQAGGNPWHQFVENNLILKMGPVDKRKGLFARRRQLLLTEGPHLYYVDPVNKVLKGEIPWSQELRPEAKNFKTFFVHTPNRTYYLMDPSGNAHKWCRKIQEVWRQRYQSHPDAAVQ
Description: PDK1 kinase assay III (with Tween 20). As to conditions: 10 μM compound, residual enzyme activity relative to DMSO control, unmarked values, read-out: % CTL. It is filed as biochemical. As for the experimental part:
Another PDK1 assay was developed which by comparison with PDK1 assay 1 additionally contains Tween 20:
The following components are combined in a well of a 96-well round-based dish (Messrs. Greiner bio-one, No. 650101): • 15 μL of compound to be tested in varying concentrations (e.g. Starting at 10 μM, and diluted in steps of 1:5) in APT buffer (50 mM tris/C1 pH7.5; 0.05% β-mercaptoethanol; 10 mM Mg-acetate; 0.0166% Tween 20; 3.33% DMSO) • 15 μL His6-PDK1 (aa 52-556) 3.33 ng/well) and PDKtide (KTFCGTPEYLAPEVRRE […]), synthesised by Pepceuticals Limited, Nottingham, United Kingdom; 25 μM final concentration); His6-PDK1 and PDKtide are together diluted accordingly in assay buffer (50 mM tris pH 7.5, 0.05% β-mercaptoethanol, 10 mM Mg-acetate); PDKtide is present in this mixture as an 83.3 μM solution. These 30 μL are routinely incubated for 30 min at RT. • 20 μL ATP solution (25 μM ATP with 1.0 μCi/well gamma-P33-ATP). The final concentration of Tween 20 is 0.005%.
The reaction is started by adding the ATP solution and the mixture is incubated for 90 min at ambient temperature; at the start of the reaction the dishes are shaken gently. The reaction is stopped by the addition of 50 μL/well of 500 mM phosphoric acid (H3PO4) and incubated for about 20 min at ambient temperature. The precipitate is transferred by harvesting onto filter plates (96-well microtitre filter plate: UniFilter GF/C; Messrs Perkin Elmer; No. 6005174), then washed 6 times with 50 mM H3PO4 and dried at 60° C. Then the plate is stuck down with sealing tape, 25 μL/well of scintillation solution (Microscint 0; Messrs. Perkin Elmer; No. 6013611) are added and the amount of P33 precipitated is measured using the Wallac Betacounter. The measured data are evaluated using Graphpad Prism software.
The % CTL values indicate the residual activity of the enzyme after the addition of the inhibitory compound in the solvent DMSO in relation to the enzyme activity in the solvent DMSO without the addition of a compound (control). The majority of the values were determined using the PDK1 kinase assay III described hereinbefore. The values marked with an asterisk (*) were determined using the PDK1 kinase assay II described hereinbefore.
For the compound `O=C1Nc2cc(/C=C/CNC(=O)c3cccn(Cc4ccccn4)c3=O)ccc2/C1=C/c1cnc[nH]1` [I-9, N-{(2E)-3-[(3Z)-3-(1H-imidazol-5-ylmethylidene)-2-oxo-2,3-dihydro-1H-indol-6-yl]prop-2-en-1-yl}-2-oxo-1-(pyridin-2-ylmethyl)-1,2-dihydropyridine-3-carboxamide], the remaining activity at 10 µM was 17.7%. With `CN(C)Cc1ccc(Nc2ncc3cc(/C=C/CNC(=O)c4cccn(Cc5ccc(Cl)nc5)c4=O)ccc3n2)cc1` [III-13, 1-[(6-chloropyridin-3-yl)methyl]-N-{(2E)-3-[2-({4-[(dimethylamino)methyl]-phenyl}amino)quinazolin-6-yl]prop-2-en-1-yl}-2-oxo-1,2-dihydropyridine-3-carboxamide], the remaining activity at 10 µM came out at 13.6%. Turning to `Cc1ccc(Cn2cccc(C(=O)NC/C=C/c3ccc4c(c3)NC(=O)/C4=C\c3cnc[nH]3)c2=O)cn1` [I-24, N-{(2E)-3-[(3Z)-3-(1H-imidazol-5-ylmethylidene)-2-oxo-2,3-dihydro-1H-indol-6-yl]prop-2-en-1-yl}-1-[(6-methylpyridin-3-yl)methyl]-2-oxo-1,2-dihydropyridine-3-carboxamide], the remaining activity at 10 µM amounted to 20.1%. Consider `CN1CCC(N(C)c2ccc(Nc3ncc4cc(/C=C/CNC(=O)c5cccn(Cc6ccc(C(F)(F)F)nc6)c5=O)ccc4n3)cc2)CC1` [III-15, N-{(2E)-3-[2-({4-[methyl(1-methylpiperidin-4-yl)amino]phenyl}amino)quinazolin-6-yl]prop-2-en-1-yl}-2-oxo-1-{[6-(trifluoromethyl)pyridin-3-yl]methyl}-1,2-dihydropyridine-3-carboxamide], for which the remaining activity at 10 µM turned out to be 21%. Take `O=C1Nc2cc(/C=C/CNC(=O)c3cccn(Cc4ccc(Cl)nc4)c3=O)ccc2/C1=C/c1ccc[nH]1` [I-2, 1-[(6-chloropyridin-3-yl)methyl]-2-oxo-N-{(2E)-3-[(3Z)-2-oxo-3-(1H-pyrrol-2-ylmethylidene)-2,3-dihydro-1H-indol-6-yl]prop-2-en-1-yl}-1,2-dihydropyridine-3-carboxamide]: the remaining activity at 10 µM came to 21.4%.

As for `O=C1Nc2cc(/C=C/CNC(=O)c3cccn(Cc4ccccn4)c3=O)ccc2/C1=C/c1ccc[nH]1` [I-6, 2-oxo-N-{(2E)-3-[(3Z)-2-oxo-3-(1H-pyrrol-2-ylmethylidene)-2,3-dihydro-1H-indol-6-yl]prop-2-en-1-yl}-1-(pyridin-2-ylmethyl)-1,2-dihydropyridine-3-carboxamide], the remaining activity at 10 µM stood at 20.1%. In the case of `O=C1Nc2cc(/C=C/CNC(=O)c3cccn(Cc4cccnc4)c3=O)ccc2/C1=C/c1cnc[nH]1` [I-7, N-{(2E)-3-[(3Z)-3-(1H-imidazol-5-ylmethylidene)-2-oxo-2,3-dihydro-1H-indol-6-yl]prop-2-en-1-yl}-2-oxo-1-(pyridin-3-ylmethyl)-1,2-dihydropyridine-3-carboxamide], the remaining activity at 10 µM was 14.5%.

In the case of `O=C1Nc2cc(/C=C/CNC(=O)c3cccn(Cc4ccncc4)c3=O)ccc2/C1=C/c1cnc[nH]1` [I-8, N-{(2E)-3-[(3Z)-3-(1H-imidazol-5-ylmethylidene)-2-oxo-2,3-dihydro-1H-indol-6-yl]prop-2-en-1-yl}-2-oxo-1-(pyridin-4-ylmethyl)-1,2-dihydropyridine-3-carboxamide], the remaining activity at 10 µM came to 25.1%. On to `O=C1Nc2cc(/C=C/CNC(=O)c3cccn(CC4CCCCC4)c3=O)ccc2/C1=C/c1cnc[nH]1` [I-25, 1-(cyclohexylmethyl)-N-{(2E)-3-[(3Z)-3-(1H-imidazol-5-ylmethylidene)-2-oxo-2,3-dihydro-1H-indol-6-yl]prop-2-en-1-yl}-2-oxo-1,2-dihydropyridine-3-carboxamide], for which the remaining activity at 10 µM worked out at 15.1%. With `O=C1Nc2cc(/C=C/CNC(=O)c3cccn(Cc4ccncc4)c3=O)ccc2/C1=C/c1ccc[nH]1` [I-5, 2-oxo-N-{(2E)-3-[(3Z)-2-oxo-3-(1H-pyrrol-2-ylmethylidene)-2,3-dihydro-1H-indol-6-yl]prop-2-en-1-yl}-1-(pyridin-4-ylmethyl)-1,2-dihydropyridine-3-carboxamide], the remaining activity at 10 µM was 39.6%. As for `CN(C)CCNC(=O)c1cccc(-c2c[nH]c(/C=C3\C(=O)Nc4cc(/C=C/CNC(=O)c5cccn(Cc6ccc(Cl)nc6)c5=O)ccc43)c2)c1` [I-3, 1-[(6-chloropyridin-3-yl)methyl]-N-{(2E)-3-[(3Z)-3-{[4-(3-{[2-(dimethylamino)-ethyl]carbamoyl}phenyl)-1H-pyrrol-2-yl]methylidene}-2-oxo-2,3-dihydro-1H-indol-6-yl]prop-2-en-1-yl}-2-oxo-1,2-dihydropyridine-3-carboxamide], the remaining activity at 10 µM turned out to be 18.9%. As for `Cn1cnc(Cn2cccc(C(=O)NC/C=C/c3ccc4c(c3)NC(=O)/C4=C\c3cnc[nH]3)c2=O)c1` [I-27, N-{(2E)-3-[(3Z)-3-(1H-imidazol-5-ylmethylidene)-2-oxo-2,3-dihydro-1H-indol-6-yl]prop-2-en-1-yl}-1-[(1-methyl-1H-imidazol-4-yl)methyl]-2-oxo-1,2-dihydropyridine-3-carboxamide], the figure is 47.7%. In the case of `CN(C)Cc1ccc(Nc2ncc3cc(/C=C/CNC(=O)c4cccn(Cc5ccc(C(F)(F)F)nc5)c4=O)ccc3n2)cc1` [III-16, N-{(2E)-3-[2-({4-[(dimethylamino)methyl]phenyl}amino)quinazolin-6-yl]prop-2-en-1-yl}-2-oxo-1-{[6-(trifluoromethyl)pyridin-3-yl]methyl}-1,2-dihydropyridine-3-carboxamide], the remaining activity at 10 µM came to 19.2%. Regarding `CN(C)Cc1ccc(Nc2ncc3cc(C#CCNC(=O)c4cccn(Cc5ccc(C(F)(F)F)nc5)c4=O)ccc3n2)cc1` [II-6, N-{3-[2-({4-[(dimethylamino)methyl]phenyl}amino)quinazolin-6-yl]prop-2-yn-1-yl}-2-oxo-1-{[6-(trifluoromethyl)pyridin-3-yl]methyl}-1,2-dihydropyridine-3-carboxamide], the remaining activity at 10 µM was 16%.

Take `O=C1Nc2cc(/C=C/CNC(=O)c3cccn(Cc4cccnc4)c3=O)ccc2/C1=C/c1ccc[nH]1` [I-4, 2-oxo-N-{(2E)-3-[(3Z)-2-oxo-3-(1H-pyrrol-2-ylmethylidene)-2,3-dihydro-1H-indol-6-yl]prop-2-en-1-yl}-1-(pyridin-3-ylmethyl)-1,2-dihydropyridine-3-carboxamide]: the remaining activity at 10 µM came out at 18.6%. Regarding `Cn1cncc1Cn1cccc(C(=O)NC/C=C/c2ccc3c(c2)NC(=O)/C3=C\c2cnc[nH]2)c1=O` [I-26, N-{(2E)-3-[(3Z)-3-(1H-imidazol-5-ylmethylidene)-2-oxo-2,3-dihydro-1H-indol-6-yl]prop-2-en-1-yl}-1-[(1-methyl-1H-imidazol-5-yl)methyl]-2-oxo-1,2-dihydropyridine-3-carboxamide], the remaining activity at 10 µM worked out at 34.1%. Then `CN1CCC(Nc2ccc(Nc3ncc4cc(/C=C/CNC(=O)c5cccn(Cc6ccc(C(F)(F)F)nc6)c5=O)ccc4n3)cc2F)CC1` [III-14, N-{(2E)-3-[2-({3-fluoro-4-[(1-methylpiperidin-4-yl)amino]phenyl}amino)quinazolin-6-yl]prop-2-en-1-yl}-2-oxo-1-{[6-(trifluoromethyl)pyridin-3-yl]methyl}-1,2-dihydropyridine-3-carboxamide], with 17.2%; and `O=C1Nc2cc(/C=C/CNC(=O)c3cccn(CC4CCCCC4)c3=O)ccc2/C1=C/c1ccc[nH]1` [I-13, 1-(cyclohexylmethyl)-2-oxo-N-{(2E)-3-[(3Z)-2-oxo-3-(1H-pyrrol-2-ylmethylidene)-2,3-dihydro-1H-indol-6-yl]prop-2-en-1-yl}-1,2-dihydropyridine-3-carboxamide], with 25.7%.
